Results reported in patent US20140357512A1, “HISTONE DEACETYLASE (HDAC) BIOMARKERS IN MULTIPLE MYELOMA” (priority 2013, published 2014).

System: human myeloma cell line MM.1S
Test: SILAC acetylated-lysine peptide profiling, HDAC inhibitor vs DMSO (light/heavy ratio)
Format: cell-based
Excerpt: An embodiment of the invention comprises utilizing the SILAC method in order to quantitate changes in protein expression between two or more populations of cells. The SILAC method is a technique based on mass spectrometry that detects differences in protein abundance among samples using non-radioactive isotopic labeling. The SILAC method is known in the art, and described in detail in Ong et al., “Stable Isotope Labeling by Amino Acids in Cell Culture, SILAC, as a Simple and Accurate Approach to Expression Proteomics”, Molecular & Cellular Proteomics, vol. 1, pp. 376-386 (2002), which is incorporated herein by reference in its entirety.
Briefly, the SILAC method involves growing two populations of cells in cell culture. The first population of cells is grown in growth media containing normal amino acids (“normal media”). The second population of cells is grown in media lacking a standard essential amino acid (such as lysine), but is then supplemented with a non-radioactive, isotopically labeled form of that essential amino acid (such as lysine labeled with ^13C atoms, rather than normal ^12C atoms), which is called “heavy media”. When the two populations of cells are each growing in the medium, they incorporate the amino acids into all of their proteins. The growth of cells maintained in the heavy media is no different from that in normal media. All peptides containing the heavy amino acids are heavier than their normal counterparts. The cells from each of the two populations of cells are lysed. The lysates from each of the two cell populations are then combined. The combined cell lysates are then analyzed by mass spectrometry. Pairs of chemically identical peptides of different stable isotope composition can be differentiated in a mass spectrometer due to their difference in mass. The ratio of peak intensities in the mass spectrum for such peptide pairs reflects the abundance ratio for the two proteins.
This example describes SILAC studies that were performed to compare the effects of three different HDAC inhibitors (Compound A, Compound B, and tubastatin A) to a control on a human multiple myeloma cell line. The HDAC inhibitors were also compared amongst themselves to determine differences in their effects.
A human myeloma cell line MM.1S was grown using either ^12C (light) or ^13C (heavy) lysine containing culture medium. The “heavy” cells were treated with DMSO as the control, and the “light” cells were treated with a single HDAC inhibitor at 37° C. for 6 hours. The heavy and light cells were lysed, and the lysates were mixed in 1:1 ratio and digested with the protease trypsin. The acetylated lysine containing peptides (due to the action of the HDAC inhibitor) in the digested peptide pool were captured by a non-specific anti-acetylated lysine antibody cocktail (the antibodies identify both light and heavy acetylated peptides), and subjected to mass spectrometry analysis in order to identify thousands of individual peptides.
Thousands of peptides were identified in pairs (^12C and ^13C) due to their known mass differences. The amino acid sequence and quantitative ratio (Light/Heavy) of a given peptide in two differentially treated cell lysates were then determined and annotated with their possible protein (gene) sources.
As stated above, three HDAC inhibitors (Compound A, Compound B, and Tubastatin A) were used. Thus, the SILAC method was performed three times, with a different HDAC inhibitor compared to a control each time. Accordingly, there are three pairs of quantitative data in the table below, i.e., Compound A:DMSO, Compound B:DMSO, and Tubastatin A:DMSO. A cut-off of 1.30 fold of change (increase or decrease) was then used to determine “changed” or “+” in the table, and any peptides with a fold of change less than 1.3 fold were determined to be “unchanged” or “0” in the table. Those peptides that were not identified were marked as “NA” in the table. […]

**Q.** Which “L/H ratio of acetylated peptide” value (LCMLYHPDK(ac)HRDPELK (SEQ ID NO: 389), Isoform 3 of DnaJ homolog subfamily C member 11 [45], DNAJC11) does the source give for O=C(NO)c1cnc(NC2(c3cccc(F)c3)CCCCC2)nc1 [Compound B, 2-((1-(3-fluorophenyl)cyclohexyl)amino)-N-hydroxypyrimidine-5-carboxamide] here?
**A.** −0.69 log 2

**Q.** What about the “L/H ratio of acetylated peptide” value (LHSNYYK(ac)HK (SEQ ID NO: 371), Uncharacterized protein C6orf125 [69], C6orf125) of the same molecule?
**A.** 0.52 log 2

**Q.** And the “L/H ratio of acetylated peptide” value (LHYK(ac)HESWLLHR (SEQ ID NO: 385), Deoxycytidine kinase [211], DCK)?
**A.** −0.43 log 2

**Q.** And the “light to heavy ratio (L/H ratio) of acetylated peptide, log 2 scale” value (LIK(ac)VHLDK (SEQ ID NO: 215), 40S ribosomal protein S7 [155], RPS7)?
**A.** 0.00

**Q.** What about the “L/H ratio of acetylated peptide” value (LK(ac)ADVFK (SEQ ID NO: 375), Isoform 1 of Chromodomain-helicase-DNA-binding protein 4 [959], CHD4) of the same molecule?
**A.** −0.45 log 2

**Q.** What about the “L/H ratio of acetylated peptide” value (LK(ac)AEKYR (SEQ ID NO: 414), Isoform 1 of Leucine-rich repeat and IQ domain-containing protein 3 [557], LRRIQ3) of the same molecule?
**A.** −1.00 log 2

**Q.** And the “L/H ratio of acetylated peptide LYK(ac)[…] (SEQ ID NO: 4)” value (LMNB1 [261], log 2 scale, drug vs DMSO)?
**A.** 0.48

**Q.** And the “L/H ratio of acetylated peptide […](ac)LENAR (SEQ ID NO: 58)” value (LMNB1 [271], log 2 scale, drug vs DMSO)?
**A.** 0.00

**Q.** What about the “light to heavy ratio (L/H ratio) of acetylated peptide, log 2 scale” value (LNEQK(ac)LAQLEEAK (SEQ ID NO: 133), ATP synthase subunit b mitochondrial [131], ATP5F1) of the same molecule?
**A.** 0.00

**Q.** And the “L/H ratio of acetylated peptide” value (LNPK(ac)[…] (SEQ ID NO: 448), Serine hydroxymethyltransferase mitochondrial [200], SHMT2)?
**A.** −0.41 log 2

**Q.** And the “L/H ratio of acetylated peptide GFGYK(ac)GSCFHR (SEQ ID NO: 59)” value (LOC390956 [71], log 2 scale, drug vs DMSO)?
**A.** 0.00

**Q.** What about the “light to heavy ratio (L/H ratio) of acetylated peptide, log 2 scale” value (LSLDK(ac)VFR (SEQ ID NO: 226), Stomatin-like protein 2 [145], STOML2) of the same molecule?
**A.** 0.00

**Q.** And the “light to heavy ratio (L/H ratio) of acetylated peptide, log 2 scale” value (LTEAKPVDK(ac)VK (SEQ ID NO: 221), cDNA FLJ60124 highly similar to Mitochondrial dicarboxylate carrier [142], SLC25A10)?
**A.** 0.00

**Q.** And the “L/H ratio of acetylated peptide” value (LVQTAELTK(ac)VFEIR (SEQ ID NO: 398), Glia maturation factor gamma [119], GMFG)?
**A.** −0.80 log 2

**Q.** What about the “light to heavy ratio (L/H ratio) of acetylated peptide, log 2 scale” value (LYATMEK(ac)HK (SEQ ID NO: 251), Histone acetyltransferase p300 [1590], EP300) of the same molecule?
**A.** 0.00

**Q.** And the “light to heavy ratio (L/H ratio) of acetylated peptide AVLK(ac)[…] (SEQ ID NO: 262)” value (Laminin receptor-like protein LAMRL5 [89], SNORA6, RPSAP15, SNORA62, RPSA, drug:DMSO)?
**A.** 0.00 log 2

**Q.** And the “light to heavy ratio (L/H ratio) of acetylated peptide SYVSEK(ac)DVTSAK (SEQ ID NO: 628)” value (Leucine-rich PPR motif-containing protein mitochondrial [1332], gene LRPPRC, inhibitor:DMSO)?
**A.** 0.00 log 2

**Q.** What about the “L/H ratio of acetylated peptide ICCQFDFK(ac)R (SEQ ID NO: 60)” value (MAN2A1 [373], log 2 scale, drug vs DMSO) of the same molecule?
**A.** 0.00

**Q.** And the “L/H ratio of acetylated peptide YLTNQK(ac)NSNSK(ac)NDR (SEQ ID NO: 17)” value (MEAF6 [69:74], log 2 scale, drug vs DMSO)?
**A.** 0.43

**Q.** What about the “light to heavy ratio (L/H ratio) of acetylated peptide, log 2 scale” value (MKENQK(ac)[…] (SEQ ID NO: 169), Isoform 2 of Heat shock protein HSP 90-alpha [611], HSP90AA1) of the same molecule?
**A.** 0.00

**Q.** And the “L/H ratio of acetylated peptide” value (MLEK(ac)DVCEK (SEQ ID NO: 446), Isoform 1 of Protein RUFY3 [382], RUFY3)?
**A.** 0.62 log 2

**Q.** What about the “L/H ratio of acetylated peptide” value (MLK(ac)QMLFR (SEQ ID NO: 433), Proteasome subunit beta type-7 [127], PSMB7) of the same molecule?
**A.** −0.47 log 2

**Q.** And the “L/H ratio of acetylated peptide TLVLSDK(ac)HSPQK(ac)K (SEQ ID NO: 5)” value (MLL3 [2809:2814], log 2 scale, drug vs DMSO)?
**A.** 0.38

**Q.** What about the “L/H ratio of acetylated peptide LNK(ac)DQWEER (SEQ ID NO: 10)” value (MSN [165], log 2 scale, drug vs DMSO) of the same molecule?
**A.** 0.71

**Q.** What about the “light to heavy ratio (L/H ratio) of acetylated peptide VHLSQK(ac)YK (SEQ ID NO: 343)” value (Matrin-3 [473], MATR3, SNHG4, drug:DMSO) of the same molecule?
**A.** 0.40 log 2

**Q.** And the “light to heavy ratio (L/H ratio) of acetylated peptide FLNK(ac)LAEER (SEQ ID NO: 342)” value (Matrin-3 [836], MATR3, SNHG4, drug:DMSO)?
**A.** −0.44 log 2

**Q.** What about the “light to heavy ratio (L/H ratio) of acetylated peptide MTDK(ac)CFR (SEQ ID NO: 573)” value (Mitochondrial import inner membrane translocase subunit Tim13 [45], gene TIMM13, inhibitor:DMSO) of the same molecule?
**A.** 0.00 log 2

**Q.** And the “light to heavy ratio (L/H ratio), log 2 scale, acetylated peptide YVK(ac)ALFR (SEQ ID NO: 771)” value (Mitochondrial import receptor subunit TOM70 [188], gene TOMM70A, drug:DMSO)?
**A.** 0.00

**Q.** What about the “light to heavy ratio (L/H ratio) of acetylated peptide LSLLSK(ac)FR (SEQ ID NO: 564)” value (Mitochondrial trifunctional protein beta subunit (Fragment) [100], gene HADHB, inhibitor:DMSO) of the same molecule?
**A.** 0.00 log 2

**Q.** What about the “light to heavy ratio (L/H ratio) of acetylated peptide EIFQNEK(ac)R (SEQ ID NO: 288)” value (NAD(P) transhydrogenase mitochondrial [70], NNT, drug:DMSO) of the same molecule?
**A.** 0.00 log 2

**Q.** And the “light to heavy ratio (L/H ratio) of acetylated peptide AISPDK(ac)DNFYFDVK (SEQ ID NO: 284)” value (NAD(P) transhydrogenase mitochondrial [403], NNT, drug:DMSO)?
**A.** 0.00 log 2

**Q.** What about the “light to heavy ratio (L/H ratio) of acetylated peptide, log 2 scale” value (NIDPK(ac)PCTPR (SEQ ID NO: 148), Isoform 1 of DAZ-associated protein 1 [83], DAZAP1) of the same molecule?
**A.** 0.00
